Measurements: the supplement of paper PMC10307832

Assays:
Test in all cases: relative viability (nuclei count vs DMSO), 5 days (fraction); higher = more cells survive
[1] = compound: C1=CC2=NC=CN=C2C=C1/C=C/3\C(=O)NC(=O)S3 + Cc1cc(Nc2cc(N3CCN(C)CC3)nc(Sc3ccc(NC(=O)C4CC4)cc3)n2)n[nH]1 [Tozasertib] (partner 0.1 µM)
Summary of the method: (§1)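 After 5 days of treatment, lung cancer cells in 1536-well plates were fixed and stained in a single step (final 0.05% Triton X-100, 1% formaldehyde, 1 ug/ml Hoechst) and their nuclei counted on 4× images. Treatment had been applied by pin tool the day after seeding as one drug alone or as a fixed anchor-drug dose with five library-drug doses (not always all listed) in √10 steps. Relative viability is the nuclei count of treated wells divided by that of vehicle wells, and values are medians of duplicate plates.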

[2] = compound: C1=CC2=NC=CN=C2C=C1/C=C/3\C(=O)NC(=O)S3 + N=C(N)NC(=N)NCCc1ccccc1 [Phenformin] (partner 250 µM)
Summary of the method: as §1

BGJ398 + Bortezomib = compound: CCN1CCN(c2ccc(Nc3cc(N(C)C(=O)Nc4c(Cl)c(OC)cc(OC)c4Cl)ncn3)cc2)CC1 [BGJ398] + CC(C)C[C@H](NC(=O)[C@H](Cc1ccccc1)NC(=O)c1cnccn1)B(O)O [Bortezomib] (partner 0.002 µM)
Summary of the method: as §1

BGJ398 + Lapatinib = compound: CCN1CCN(c2ccc(Nc3cc(N(C)C(=O)Nc4c(Cl)c(OC)cc(OC)c4Cl)ncn3)cc2)CC1 [BGJ398] + CS(=O)(=O)CCNCc1ccc(-c2ccc3ncnc(Nc4ccc(OCc5cccc(F)c5)c(Cl)c4)c3c2)o1 [Lapatinib] (partner 2 µM)
Summary of the method: as §1

Cell Line | relative viability ([1]; first compound 0.02 µM) | relative viability ([1]; first compound 0.06325 µM) | relative viability ([1]; first compound 0.2 µM) | relative viability ([1]; first compound 0.6325 µM) | relative viability ([1]; first compound 2 µM) | relative viability ([2]; first compound 0.02 µM) | relative viability ([2]; first compound 0.06325 µM) | relative viability ([2]; first compound 0.2 µM) | relative viability ([2]; first compound 0.6325 µM) | relative viability ([2]; first compound 2 µM) | relative viability (BGJ398 + Bortezomib; first compound 0.01 µM) | relative viability (BGJ398 + Bortezomib; first compound 0.03162 µM) | relative viability (BGJ398 + Bortezomib; first compound 0.1 µM) | relative viability (BGJ398 + Bortezomib; first compound 0.3162 µM) | relative viability (BGJ398 + Bortezomib; first compound 1 µM) | relative viability (BGJ398 + Lapatinib; first compound 0.01 µM) | relative viability (BGJ398 + Lapatinib; first compound 0.03162 µM) | relative viability (BGJ398 + Lapatinib; first compound 0.1 µM) | relative viability (BGJ398 + Lapatinib; first compound 0.3162 µM) | relative viability (BGJ398 + Lapatinib; first compound 1 µM)
NCI-H2023 | 0.404 | 0.321 | 0.472 | 0.379 | 0.335 | 0.441 | 0.452 | 0.438 | 0.426 | 0.329 | 0.966 | 1.07 | 0.978 | 0.883 | 1.12 | 0.766 | 0.872 | 0.743 | 0.894 | 0.742
NCI-H2085 | 0.813 | 0.874 | 0.848 | 0.848 | 0.731 | 0.747 | 0.721 | 0.716 | 0.671 | 0.65 | 1.02 | 1.07 | 1.02 | 0.983 | 1.15 | 0.744 | 0.784 | 0.802 | 0.677 | 0.663
NCI-H2087 | 0.206 | 0.273 | 0.212 | 0.243 | 0.238 | 0.428 | 0.33 | 0.42 | 0.493 | 0.502 | 0.725 | 0.699 | 0.806 | 0.848 | 0.602 | 0.951 | 0.975 | 1.09 | 1.17 | 0.885
NCI-H2126 | 0.841 | 0.882 | 0.857 | 0.759 | 0.528 | 0.503 | 0.581 | 0.567 | 0.534 | 0.339 | 1.14 | 1.1 | 1.11 | 1.11 | 1.12 | 0.808 | 0.765 | 0.764 | 0.785 | 0.678
NCI-H2228 | 0.302 | 0.228 | 0.234 | 0.21 | 0.221 | 0.281 | 0.329 | 0.445 | 0.361 | 0.213 | 1.34 | 1.08 | 0.782 | 0.942 | 0.925 | 1.01 | 1.24 | 0.742 | 1 | 1.04
NCI-H2347 | 0.553 | 0.554 | 0.546 | 0.633 | 0.601 | 0.352 | 0.322 | 0.422 | 0.394 | 0.375 | 0.737 | 0.835 | 0.9 | 0.88 | 0.784 | 0.913 | 1.02 | 0.944 | 0.926 | 0.893
NCI-H2405 | 0.764 | 0.768 | 0.73 | 0.727 | 0.637 | 0.44 | 0.406 | 0.397 | 0.383 | 0.111 | 0.976 | 0.99 | 1 | 0.98 | 0.785 | 1.15 | 1.32 | 1.05 | 1.07 | 0.857
NCI-H3122 | 0.401 | 0.418 | 0.331 | 0.38 | 0.4 | 0.401 | 0.356 | 0.379 | 0.392 | 0.366 | 1.04 | 0.998 | 1 | 1.02 | 1.09 | 0.97 | 1.03 | 1.03 | 1.07 | 1.08
PC-3 [JPC-3] | 0.811 | 0.811 | 0.905 | 0.913 | 0.869 | 0.478 | 0.542 | 0.467 | 0.487 | 0.487 | 0.851 | – | 0.914 | 0.804 | 0.765 | 0.44 | – | 0.412 | 0.478 | 0.348
PC-14 | 0.579 | 0.754 | 0.571 | 0.546 | 0.572 | 0.718 | 0.719 | 0.641 | 0.649 | 0.452 | 0.952 | 0.85 | 0.791 | 0.868 | 0.878 | 0.282 | 0.255 | 0.352 | 0.251 | 0.31
RERF-LC-KJ | 0.443 | 0.613 | 0.592 | 0.452 | 0.46 | 0.399 | 0.467 | 0.406 | 0.392 | 0.418 | 1.06 | 1.17 | 1.2 | 1.31 | 1.18 | 0.86 | 0.88 | 0.908 | 0.924 | 0.724
SK-LU-1 | 0.367 | 0.297 | 0.381 | 0.357 | 0.316 | 0.681 | 0.628 | 0.552 | 0.554 | 0.395 | 1.11 | 1.27 | 1.51 | 1.14 | 1.14 | 0.878 | 1.07 | 0.979 | 0.702 | 0.945
SW 1573 | 0.192 | 0.201 | 0.183 | 0.183 | 0.204 | 0.377 | 0.443 | 0.429 | 0.323 | 0.287 | 0.948 | 1.05 | 0.909 | 0.964 | 0.91 | 1.03 | 1.12 | 1.08 | 1.02 | 0.984
